Assay results: patent US5013722A, “Cholecystokinin analogs for controlling appetite” (Hoffmann-LaRoche Inc., priority 1989, dated 1991)
Where a SMILES comes first, the peptide text is derived from it. Where no end group is shown, it is not given here. [ ]: non-standard residue; d: D form. The star is where a group is joined. Thr(SO3H) = C[C@@H](OS(=O)(=O)O)[C@H](N)C(=O)O; sY = N[C@@H](Cc1ccc(OS(=O)(=O)O)cc1)C(=O)O; NMeF = CN[C@@H](Cc1ccccc1)C(=O)O; Nle = CCCC[C@H](N)C(=O)O; For = O=C*

Tests used:
[1] = biological target: T1, receptors in rat pancreas (3H-CCK-8-(SO3 H) binding) (Rattus norvegicus, UniProt P30551); test: In vitro receptor binding assay, rat pancreas homogenate, 3H-CCK-8-(SO3H) radioligand
T1 construct: receptors in homogenized preparations of rat pancreatic cells and bovine striata; from tissue; host or cells: rat pancreas homogenate (48,000 x g pellet)
T1 sequence (P30551 1-444): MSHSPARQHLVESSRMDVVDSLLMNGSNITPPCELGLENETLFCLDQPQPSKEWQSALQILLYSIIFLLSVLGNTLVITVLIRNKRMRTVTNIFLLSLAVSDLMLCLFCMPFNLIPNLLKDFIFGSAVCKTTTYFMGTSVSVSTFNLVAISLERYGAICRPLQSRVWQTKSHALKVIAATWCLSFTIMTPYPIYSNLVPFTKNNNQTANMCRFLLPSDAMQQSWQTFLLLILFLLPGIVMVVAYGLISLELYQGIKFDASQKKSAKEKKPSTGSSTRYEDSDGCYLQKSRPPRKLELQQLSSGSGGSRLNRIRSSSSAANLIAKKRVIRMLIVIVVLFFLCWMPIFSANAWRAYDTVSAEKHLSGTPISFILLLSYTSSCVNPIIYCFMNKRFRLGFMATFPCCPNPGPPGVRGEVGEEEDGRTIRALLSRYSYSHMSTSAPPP
Method: This strategy was utilized to minimize central nervous system side effects by identifying peptides with peripheral receptor selectivity. […] The tissue was homogenized 2 x for approx. 15 sec. at 0° C. using a Polytron homogenizer at a setting of 6. The tissue was isolated by centrifugation at 48,000 x g for 10 min. at 0° C. […] Samples were incubated for 30 min. at 25° C. and the incubation terminated by pouring the mixture onto a pre-wet Whatman GF/B filter on a Sandbeck Vacuum Filtration Manifold. The incubation tubes were washed with 2×3 ml of ice-cold HEPES Buffer #2 and the wash filtered through the GF/B filter. The filter was air dried for 10 min. and then placed in a scintillation vial with 12 ml of Beckman HP/b Ready-Solv scintillation cocktail. The vials were shaken for 2 hours and then counted using a Beckman Model 7800 liquid scintillation spectrometer.

[2] = tested on: Male Sprague-Dawley (CD) rats, food intake; test: Two-meal feeding assay, intraperitoneal administration; assay type: in vivo, rat; conditions: 32 microgm/Kg i.p., mean ± SEM; for Food Intake 1st Meal: 15 min before first meal
Method: (§1) Male Sprague-Dawley (CD) rats weighing 180-200 grams (Charles River Breeding Laboratories) were acclimated to a 12 h light/dark cycle (6 a.m. to 6 p.m.) in a room kept at 22° C. They were subsequently fasted for two days, weighed, placed in individual cages, and a four-day period of meal training was begun. During this time the rats were given ground laboratory chow (Purina Lab Chow) in jars for one hour from 9:00 a.m. until 10:00 a.m., the jars were removed from 10:00 a.m. to 12:00 p.m., and placed back in the cages from 12:00 until 1:00 p.m. Under this `1-2-1` meal feeding regime most rats learn to eat approximately as much Per day during the two hours they have access to food as rats which have food ad libitum over the entire 24-hour day. On the fourth day, the rats were weighed again, and any which lost more than five grams body weight were excluded from the test. The animals were then distributed into experimental (n=5 to 6) and control groups (n=6-12). but not matched for body weight.
Peptides of the invention were suspended either in saline. if soluble, or in 1% gum arabic, if insoluble, at concentrations of 0 to 320 μg/ml/kg body weight and were administered intraperitonerally 15 min before the first meal on day 5 of meal feeding. The rats were then given their meals as they had been during the previous four days, and the food cups were weighed both before and after each meal to determine food consumption. Food intake was expressed as a mean and standard error of the mean in grams consumed or as a percent of control values for the various groups. The treated groups were compared to the control groups by t-test analysis. […]

[3] = tested on: Male rats, food intake; test: Two-meal feeding assay, intranasal administration; assay type: in vivo, rat
Method: as §1
Male rats were meal trained as described in Example 9. The peptide of Example 2 was dissolved in saline and was administered to the rats intranasally. CCK-8, dissolved in saline was used as a control.

[4] = biological target: T2, Rat kidney metalloendopeptidase (Rattus norvegicus, UniProt P07861); test: Degradation by rat kidney metalloendopeptidase (HPLC); assay type: in vitro ADME; conditions: for % Degradation by Height: 37° C., pH 7.6
T2 construct: from tissue; host or cells: rat kidney
T2 sequence (P07861 1-750): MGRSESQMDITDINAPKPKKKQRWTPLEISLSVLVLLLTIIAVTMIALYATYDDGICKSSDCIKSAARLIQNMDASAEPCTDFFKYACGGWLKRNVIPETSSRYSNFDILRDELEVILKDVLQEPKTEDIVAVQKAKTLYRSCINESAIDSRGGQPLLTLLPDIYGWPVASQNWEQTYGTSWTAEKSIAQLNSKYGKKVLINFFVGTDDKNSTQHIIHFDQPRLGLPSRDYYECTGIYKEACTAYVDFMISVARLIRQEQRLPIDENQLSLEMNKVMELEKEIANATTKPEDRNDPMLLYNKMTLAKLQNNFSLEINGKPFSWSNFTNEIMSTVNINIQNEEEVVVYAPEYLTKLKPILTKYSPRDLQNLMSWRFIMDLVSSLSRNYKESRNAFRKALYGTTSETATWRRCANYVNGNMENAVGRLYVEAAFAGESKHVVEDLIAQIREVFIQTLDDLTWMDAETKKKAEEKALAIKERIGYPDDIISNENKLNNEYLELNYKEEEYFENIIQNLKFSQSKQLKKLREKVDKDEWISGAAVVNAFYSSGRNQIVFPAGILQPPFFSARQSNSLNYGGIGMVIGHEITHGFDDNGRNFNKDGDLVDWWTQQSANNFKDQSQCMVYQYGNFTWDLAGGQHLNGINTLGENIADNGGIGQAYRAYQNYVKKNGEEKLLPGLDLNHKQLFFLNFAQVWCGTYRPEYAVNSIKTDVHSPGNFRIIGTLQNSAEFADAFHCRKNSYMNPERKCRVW
Method: Rat kidney metalloendopeptidase (0.01 μg) and 5 nmol of peptide were incubated in 2 μmol tris-HCl buffer (pH 7.6) and at 37° C. for varying periods of time. The degradation of the peptide was monitored by analytical HPLC on a 5 micron Adsorbosphere-ODS column with a 0-50% CH3 CN gradient in 0.1N potassium phosphate, pH 3.0, with UV detection at 210 nm. Rates are based on presumed production of Asp-Tyr(SO3 H)-Met-Gly for CCK-8 and the presumed production of Ac-Tyr(SO3 H)-Met-Gly for Example 2 and 3.

[5] = tested on: lean and obese men, food intake; conditions: cited from earlier work
[6] = biological target: T3, receptors in bovine striatum (3H-CCK-8-(SO3 H) binding, central receptor) (Bos taurus, UniProt P79266); test: In vitro receptor binding assay, bovine striatum homogenate, 3H-CCK-8-(SO3H) radioligand; conditions: 0.15 nM radioligand, 30 min, 25° C.; read-out: Bovine Striatum IC50 (inhibition of specific 3H-CCK-8-(SO3H) binding)
T3 construct: receptors in homogenized preparations of rat pancreatic cells and bovine striata; from tissue; host or cells: bovine striatum homogenate (48,000 x g pellet)
T3 sequence (P79266 1-454): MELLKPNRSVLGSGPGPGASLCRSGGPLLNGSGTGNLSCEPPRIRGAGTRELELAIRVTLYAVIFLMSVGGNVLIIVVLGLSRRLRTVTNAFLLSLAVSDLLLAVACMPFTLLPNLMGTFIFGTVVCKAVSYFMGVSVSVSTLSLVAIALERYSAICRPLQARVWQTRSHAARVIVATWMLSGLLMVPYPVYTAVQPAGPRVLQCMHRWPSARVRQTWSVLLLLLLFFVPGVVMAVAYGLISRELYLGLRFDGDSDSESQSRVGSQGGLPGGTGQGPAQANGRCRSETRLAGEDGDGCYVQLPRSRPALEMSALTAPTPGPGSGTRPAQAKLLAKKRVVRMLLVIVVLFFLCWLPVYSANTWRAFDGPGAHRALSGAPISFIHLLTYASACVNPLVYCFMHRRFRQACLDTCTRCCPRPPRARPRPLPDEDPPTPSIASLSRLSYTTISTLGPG
Method: Frozen bovine striatum (approx. 5 g) and fresh rat pancreas (approx. 5 g) cleaned of fat and extraneous tissue were homogenized in HEPES buffer #1 (10 mM HEPES+130 mM NaCl+5 mM MgCl2. pH 7.4) using 35 parts buffer per 1 part tissue on a wet weight/volume basis (approx. 175 ml). The tissue was homogenized 2 x for approx. 15 sec. at 0° C. using a Polytron homogenizer at a setting of 6. The tissue was isolated by centrifugation at 48,000 x g for 10 min. at 0° C. The resulting tissue pellet was resuspended in HEPES buffer #2 (10 mM HEPES+130 mM NaCl+5 mM MgCl2 +1 mg/L phenylmethanesulfonyl fluoride (PMSF)+200 mg/L Bacitracin): 1 part striatal tissue (original wet weight) per 80 parts buffer and 1 part pancreas tissue (original wet weight) per 70 parts buffer.
Incubation was initiated by combining various concentrations of native CCK-8 or peptides of formula I, II and III with ^3 H-CCK-8-(SO3 H) (final conc.=0.15 nM) and tissue homogenate (striatum 0.26 mg protein in 2 ml final volume; pancreas 0.165 mg protein in 1 ml final volume). Samples were incubated for 30 min. at 25° C. and the incubation terminated by pouring the mixture onto a pre-wet Whatman GF/B filter on a Sandbeck Vacuum Filtration Manifold. The incubation tubes were washed with 2×3 ml of ice-cold HEPES Buffer #2 and the wash filtered through the GF/B filter. The filter was air dried for 10 min. and then placed in a scintillation vial with 12 ml of Beckman HP/b Ready-Solv scintillation cocktail. The vials were shaken for 2 hours and then counted using a Beckman Model 7800 liquid scintillation spectrometer. Non-specific binding was determined in the presence of 1 micromole native CCK-8 and subtracted from all samples to determine specific binding. The concentration of ^3 peptide necessary to inhibit 50% of total specific H-CCK-8-(SO3 H) binding (IC50 value) was determined by log-probit analysis.

[7] = tested on: rat and monkey, satiety; conditions: cited from earlier work
[8] = 1000 μg/kg intranasal, saline = 100

Molecule	Binding selectivity, receptor sites in pancreas versus brain ([1]; rat pancreas vs bovine striatum)	Food Intake 1st Meal [2]	Food Intake 2nd Meal [2]	Food Intake (activity in words) ([3]; 400 μg/kg intranasal)	Food Intake 1st meal Grams consumed ([3]; 1000 μg/kg intranasal) [Grams]	Food Intake 2nd meal Grams consumed ([3]; 1000 μg/kg intranasal) [Grams]	Food Intake 1st meal (%) [3, 8] [%]	Food Intake 2nd meal (%) [3, 8] [%]	% Degradation by Height ([4]; incubation 0 min) [%]	% Degradation by Height ([4]; incubation 15 min) [%]	% Degradation by Height ([4]; incubation 30 min) [%]	No. of Peaks (degradation products) ([4]; incubation 60 min)	% Degradation by Height ([4]; incubation 60 min) [%]	Food intake after infusion [5]	IC50 [6] [nM]	IC50 ([1]; 0.15 nM radioligand, 30 min, 25° C., read-out: Rat Pancreas IC50 (inhibition of specific 3H-CCK-8-(SO3H) binding)) [nM]	% Degradation by Height ([4]; incubation 120 min) [%]	No. of Peaks (degradation products) ([4]; incubation 240 min)	% Degradation by Height ([4]; incubation 240 min) [%]	Satiety after peripheral administration [7]
CSCC[C@H](NC(=O)[C@H](Cc1ccc(OS(=O)(=O)O)cc1)NC(=O)[C@@H](N)CC(=O)O)C(=O)NCC(=O)N[C@@H](Cc1c[nH]c2ccccc12)C(=O)N[C@@H](CCSC)C(=O)N[C@@H](CC(=O)O)C(=O)N[C@@H](Cc1ccccc1)C(N)=O [CCK-8, Asp--Tyr(SO3 H)--Met--Gly--Trp--Met--Asp--Phe--NH2, reference compound]	binds to receptor sites in the pancreas and brain	27 ± 17 % of Control	149 ± 6 % of Control	Inactive	4.9 ± 0.7	6.3 ± 05	66	112	0	6.2	33.2	4	69.7	decrease food intake in lean and obese men						
CCCC[C@H](NC(=O)[C@H](Cc1ccc(OS(=O)(=O)O)cc1)NC(C)=O)C(=O)N[C@H](C)C(=O)N[C@@H](Cc1cn(C=O)c2ccccc12)C(=O)N[C@@H](CCSC)C(=O)N[C@H](C(=O)N(C)[C@@H](Cc1ccccc1)C(N)=O)[C@@H](C)OS(=O)(=O)O [Example 3, Ac-Tyr-(SO3 H)-Nle-(D)Ala-Trp(For)-Met-Thr(SO3 H)-N-methyl-Phe-NH2] (Ac-[sY][Nle][dA]W(For)M[Thr(SO3H)][NMeF]-NH2)		34 ± 6 % of Control	164 ± 16 % of Control						0				0		100	100	0	0	0	
Cholecystokinin (KAPSGRVSMIKNLQSLDPSHRISDRDYMGWMDF; ends and bridges not checked; UniProt P01356 70-102, looked up) [CCK, polypeptide hormone first isolated as a 33-amino acid peptide from the porcine gastrointestinal tract]																				produce satiety in the rat and the monkey
